Laboratory results from patent publication US9346815B2, “5-chloro-2-difluoromethoxyphenyl pyrazolopyrimidine compounds, compositions and methods of use thereof” (Genentech, Inc., priority 2014, dated 2016).

Key:
[1] = target: isolated recombinant JAK1 kinase domain (Homo sapiens (Human), UniProt P23458); assay: JAK1 enzyme assay (Caliper LabChip, peptide phosphorylation); assay type: biochemical; conditions: isolated recombinant JAK1 kinase domain, 25 μM ATP
[2] = target: isolated recombinant JAK2 kinase domain (Homo sapiens (Human), UniProt O60674); assay: JAK2 enzyme assay (Caliper LabChip, peptide phosphorylation); assay type: biochemical; conditions: 25 μM ATP
isolated recombinant JAK2 kinase domain, sequence (O60674 849-1124): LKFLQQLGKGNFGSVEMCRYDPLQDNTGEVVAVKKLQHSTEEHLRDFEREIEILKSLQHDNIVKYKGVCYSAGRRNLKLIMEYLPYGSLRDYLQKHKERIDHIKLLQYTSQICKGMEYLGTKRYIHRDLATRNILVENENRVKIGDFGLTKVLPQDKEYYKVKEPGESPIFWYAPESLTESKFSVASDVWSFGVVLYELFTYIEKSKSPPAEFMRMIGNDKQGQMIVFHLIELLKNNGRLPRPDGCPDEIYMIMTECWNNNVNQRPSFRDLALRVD

[3] = tested on: JAK1-dependent STAT6 phosphorylation downstream of IL-13 stimulation in TF-1 human erythroleukemia cells; assay: JAK1 pathway assay in TF-1 cells (IL-13-pSTAT6, MSD); assay type: cell-based; conditions: Homo sapiens, TF-1, TF-1 cells, read-out: IL13-pSTAT6 EC50_TF-1
Outline: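 Compound preincubation lasted 1 hr for BEAS-2B cells in complete growth medium and 30 min for GM-CSF-starved TF-1 cells in serum-free medium. EC50 values were determined.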

isolated recombinant JAK1 kinase domain, sequence (P23458 875-1153): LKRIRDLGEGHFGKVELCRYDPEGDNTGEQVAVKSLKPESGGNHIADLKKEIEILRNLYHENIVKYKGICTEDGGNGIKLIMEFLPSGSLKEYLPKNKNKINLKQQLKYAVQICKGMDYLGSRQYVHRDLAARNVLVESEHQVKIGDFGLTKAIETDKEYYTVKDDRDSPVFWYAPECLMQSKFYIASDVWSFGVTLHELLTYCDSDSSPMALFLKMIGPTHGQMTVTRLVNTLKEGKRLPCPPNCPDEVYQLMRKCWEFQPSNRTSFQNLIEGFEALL

SMILES: CN(C)Cc1ccc(-c2nc(-c3cc(Cl)ccc3OC(F)F)c(NC(=O)c3cnn4cccnc34)s2)cc1 [Example 255, N-[4-[5-chloro-2-(difluoromethoxy)phenyl]-2-[4-[(dimethylamino)methyl]phenyl]thiazol-5-yl]pyrazolo[1,5-a]pyrimidine-3-carboxamide]
- Ki [1]: 0.56 nM
- Ki [2]: 0.4 nM
- EC50 [3]: 86.2 nM

SMILES: C=CCN(CCOc1ccc(C)cc1)C1CCN(C(=O)Cn2cc(NC(=O)c3cnn4cccnc34)c(-c3cc(Cl)ccc3OC(F)F)n2)CC1 [Example 109, N-[1-[2-[4-[allyl-[2-(4-methylphenoxy)ethyl]amino]-1-piperidyl]-2-oxo-ethyl]-3-[5-chloro-2-(difluoromethoxy)phenyl]pyrazol-4-yl]pyrazolo[1,5-a]pyrimidine-3-carboxamide]
- Ki [1]: 3.22 nM
- Ki [2]: 7.3 nM
- EC50 [3]: 42.9 nM

SMILES: CS(=O)(=O)CCCN1CCC(n2cc(NC(=O)c3c(N)nn4cccnc34)c(-c3cc(Cl)ccc3OC(F)F)n2)CC1 [Example 177, 2-amino-N-[3-[5-chloro-2-(difluoromethoxy)phenyl]-1-[1-(3-methylsulfonylpropyl)-4-piperidyl]pyrazol-4-yl]pyrazolo[1,5-a]pyrimidine-3-carboxamide]
- Ki [1]: 0.45 nM
- Ki [2]: 0.09 nM
- EC50 [3]: 15 nM

SMILES: O=C(Nc1cn(CC(=O)N2C[C@H]3CNC[C@H]3C2)nc1-c1cc(Cl)ccc1OC(F)F)c1cnn2cccnc12 [Example 4, Cis-pyrazolo[1,5-a]pyrimidine-3-carboxylic acid {3-(5-chloro-2-difluoromethoxyphenyl)-1-[2-(hexahydropyrrolo[3,4-c]pyrrol-2-yl)-2-oxoethyl]-1H-pyrazol-4-yl}amide]
- Ki [1]: 0.66 nM
- Ki [2]: 0.8 nM
- EC50 [3]: 547 nM

SMILES: O=C(Nc1cn(CC(=O)N2C[C@H]3CN(CCCN4CCOCC4)C[C@H]3C2)nc1-c1cc(Cl)ccc1OC(F)F)c1cnn2cccnc12 [Example 19, N-[1-[2-[(3aR,6aS)-2-(3-morpholinopropyl)-1,3,3a,4,6,6a-hexahydropyrrolo[3,4-c]pyrrol-5-yl]-2-oxo-ethyl]-3-[5-chloro-2-(difluoromethoxy)phenyl]pyrazol-4-yl]pyrazolo[1,5-a]pyrimidine-3-carboxamide]
- Ki [1]: 0.72 nM
- Ki [2]: 0.71 nM
- EC50 [3]: 379 nM

SMILES: CN(CC1(C)COC1)C1CCN(C(=O)Cn2cc(NC(=O)c3cnn4cccnc34)c(-c3cc(Cl)ccc3OC(F)F)n2)CC1 [Example 96, N-[3-[5-chloro-2-(difluoromethoxy)phenyl]-1-[2-[4-[methyl-[(3-methyloxetan-3-yl)methyl]amino]-1-piperidyl]-2-oxo-ethyl]pyrazol-4-yl]pyrazolo[1,5-a]pyrimidine-3-carboxamide]
- Ki [1]: 0.63 nM
- Ki [2]: 1.4 nM
- EC50 [3]: 4.1 nM

SMILES: CN1CCC2(CCN(C(=O)Cn3cc(NC(=O)c4cnn5cccnc45)c(-c4cc(Cl)ccc4OC(F)F)n3)C2)C1 (stereo not drawn) [Example 212, N-[3-[5-chloro-2-(difluoromethoxy)phenyl]-1-[2-(7-methyl-2,7-diazaspiro[4.4]nonan-2-yl)-2-oxo-ethyl]pyrazol-4-yl]pyrazolo[1,5-a]pyrimidine-3-carboxamide]
- Ki [1]: 0.91 nM
- Ki [2]: 1.93 nM
- EC50 [3]: 30.6 nM

SMILES: O=C(Nc1cn(CC(=O)N2CCC(N3Cc4ccc(Cl)cc4C3)CC2)nc1-c1cc(Cl)ccc1OC(F)F)c1cnn2cccnc12 [Example 135, N-[3-[5-chloro-2-(difluoromethoxy)phenyl]-1-[2-[4-(5-chloroisoindolin-2-yl)-1-piperidyl]-2-oxo-ethyl]pyrazol-4-yl]pyrazolo[1,5-a]pyrimidine-3-carboxamide]
- Ki [1]: 0.52 nM
- Ki [2]: 1.15 nM
- EC50 [3]: 26.9 nM

SMILES: O=C(Nc1cn(C2CCN(CCCN3CCCC3=O)CC2)nc1-c1cc(Cl)ccc1OC(F)F)c1cnn2cccnc12 [Example 155, N-[3-[5-chloro-2-(difluoromethoxy)phenyl]-1-[1-[3-(2-oxopyrrolidin-1-yl)propyl]-4-piperidyl]pyrazol-4-yl]pyrazolo[1,5-a]pyrimidine-3-carboxamide]
- Ki [1]: 1.56 nM
- Ki [2]: 0.24 nM
- EC50 [3]: 5.1 nM

SMILES: Nc1nn2cccnc2c1C(=O)Nc1cn(C2CCN(CCCO)CC2)nc1-c1cc(Cl)ccc1OC(F)F [Example 176, 2-amino-N-[3-[5-chloro-2-(difluoromethoxy)phenyl]-1-[1-(3-hydroxypropyl)-4-piperidyl]pyrazol-4-yl]pyrazolo[1,5-a]pyrimidine-3-carboxamide]
- Ki [1]: 0.68 nM
- Ki [2]: 0.12 nM
- EC50 [3]: 12.7 nM

SMILES: CN(C)C[C@@H]1CCCN1C(=O)Cn1cc(NC(=O)c2c(N)nn3cccnc23)c(-c2cc(Cl)ccc2OC(F)F)n1 [Example 79, 2-amino-N-[3-[5-chloro-2-(difluoromethoxy)phenyl]-1-[2-[(2S)-2-[(dimethylamino)methyl]pyrrolidin-1-yl]-2-oxo-ethyl]pyrazol-4-yl]pyrazolo[1,5-a]pyrimidine-3-carboxamide]
- Ki [1]: 4.54 nM
- Ki [2]: 2.11 nM
- EC50 [3]: 158 nM

SMILES: O=C(Nc1cn(CC(=O)N2C[C@H]3CN(CCCN4CCOC4=O)C[C@H]3C2)nc1-c1cc(Cl)ccc1OC(F)F)c1cnn2cccnc12 [Example 32, N-[1-[2-[(3aS,6aR)-2-[3-(2-oxooxazolidin-3-yl)propyl]-1,3,3a,4,6,6a-hexahydropyrrolo[3,4-c]pyrrol-5-yl]-2-oxo-ethyl]-3-[5-chloro-2-(difluoromethoxy)phenyl]pyrazol-4-yl]pyrazolo[1,5-a]pyrimidine-3-carboxamide]
- Ki [1]: 0.46 nM
- Ki [2]: 0.5 nM
- EC50 [3]: 98.5 nM

SMILES: CN(CCOc1ccccc1Br)C1CCN(C(=O)Cn2cc(NC(=O)c3cnn4cccnc34)c(-c3cc(Cl)ccc3OC(F)F)n2)CC1 [Example 105, N-[1-[2-[4-[2-(2-bromophenoxy)ethyl-methyl-amino]-1-piperidyl]-2-oxo-ethyl]-3-[5-chloro-2-(difluoromethoxy)phenyl]pyrazol-4-yl]pyrazolo[1,5-a]pyrimidine-3-carboxamide]
- Ki [1]: 1.45 nM
- Ki [2]: 3.17 nM
- EC50 [3]: 50 nM

SMILES: CN1C[C@@H]2CN(C(=O)c3nc(-c4cc(Cl)ccc4OC(F)F)c(NC(=O)c4cnn5cccnc45)s3)C[C@@H]2C1 [Example 264, Pyrazolo[1,5-a]pyrimidine-3-carboxylic acid [4-(5-chloro-2-difluoromethoxy-phenyl)-2-(5-methyl-hexahydro-pyrrolo[3,4-c]pyrrole-2-carbonyl)-thiazol-5-yl]-amide]
- Ki [1]: 2.69 nM
- Ki [2]: 2.38 nM
- EC50 [3]: 19.8 nM

SMILES: O=C(Nc1cn(CC(=O)N2C[C@H]3CN(CCCN4CCCC4=O)C[C@H]3C2)nc1-c1cc(Cl)ccc1OC(F)F)c1cnn2cccnc12 [Example 18, N-[1-[2-[(3aR,6aS)-2-[3-(2-oxopyrrolidin-1-yl)propyl]-1,3,3a,4,6,6a-hexahydropyrrolo[3,4-c]pyrrol-5-yl]-2-oxo-ethyl]-3-[5-chloro-2-(difluoromethoxy)phenyl]pyrazol-4-yl]pyrazolo[1,5-a]pyrimidine-3-carboxamide]
- Ki [1]: 0.56 nM
- Ki [2]: 0.56 nM
- EC50 [3]: 274 nM

SMILES: CN(CCOc1ccc(Cl)cc1)C1CCN(C(=O)Cn2cc(NC(=O)c3cnn4cccnc34)c(-c3cc(Cl)ccc3OC(F)F)n2)CC1 [Example 107, N-[3-[5-chloro-2-(difluoromethoxy)phenyl]-1-[2-[4-[2-(4-chlorophenoxy)ethyl-methyl-amino]-1-piperidyl]-2-oxo-ethyl]pyrazol-4-yl]pyrazolo[1,5-a]pyrimidine-3-carboxamide]
- Ki [1]: 0.97 nM
- Ki [2]: 2.49 nM
- EC50 [3]: 17.6 nM

SMILES: O=C(Nc1cn(CC(=O)N2C[C@H]3CN(CC4CC4)C[C@H]3C2)nc1-c1cc(Cl)ccc1OC(F)F)c1cnn2cccnc12 [Example 6, Cis-pyrazolo[1,5-a]pyrimidine-3-carboxylic acid {3-(5-chloro-2-difluoromethoxyphenyl)-1-[2-(5-cyclopropylmethylhexahydropyrrolo[3,4-c]pyrrol-2-yl)-2-oxoethyl]-1H-pyrazol-4-yl}amide]
- Ki [1]: 0.71 nM
- Ki [2]: 0.75 nM
- EC50 [3]: 5.9 nM

SMILES: O=C(Nc1cn(C2CCN(CCCC(=O)N3CCOCC3)CC2)nc1-c1cc(Cl)ccc1OC(F)F)c1cnn2cccnc12 [Example 169, N-[3-[5-chloro-2-(difluoromethoxy)phenyl]-1-[1-(4-morpholino-4-oxo-butyl)-4-piperidyl]pyrazol-4-yl]pyrazolo[1,5-a]pyrimidine-3-carboxamide]
- Ki [1]: 1.16 nM
- Ki [2]: 0.22 nM
- EC50 [3]: 6.8 nM

SMILES: O=C(Nc1cn(CC(=O)N2C[C@H]3CN(CCOCc4ccc(Cl)cc4)C[C@H]3C2)nc1-c1cc(Cl)ccc1OC(F)F)c1cnn2cccnc12 [Example 60, N-[1-[2-[(3aR,6aS)-2-[2-[(4-chlorophenyl)methoxy]ethyl]-1,3,3a,4,6,6a-hexahydropyrrolo[3,4-c]pyrrol-5-yl]-2-oxo-ethyl]-3-[5-chloro-2-(difluoromethoxy)phenyl]pyrazol-4-yl]pyrazolo[1,5-a]pyrimidine-3-carboxamide]
- Ki [1]: 1.1 nM
- Ki [2]: 0.7 nM
- EC50 [3]: 46.2 nM

SMILES: CN1CC[C@H](n2cc(NC(=O)c3c(N)nn4cccnc34)c(-c3cc(Cl)ccc3OC(F)F)n2)C1 [Example 182, 2-amino-N-[3-[5-chloro-2-(difluoromethoxy)phenyl]-1-[(3S)-1-methylpyrrolidin-3-yl]pyrazol-4-yl]pyrazolo[1,5-a]pyrimidine-3-carboxamide]
- Ki [1]: 0.49 nM
- Ki [2]: 0.2 nM
- EC50 [3]: 8.9 nM
